According to patent US9283222B2 (priority 2006, dated 2016):

Target: Recombinant Human Poly(ADP-Ribose) Polymerase (PARP), PARP-1 (Homo sapiens (Human), UniProt P09874)
Settings: read-out: PARP-1 (Ki); Table 1; text calls the values EC50s

Sequence of Recombinant Human Poly(ADP-Ribose) Polymerase (PARP), PARP-1 (P09874 whole entry): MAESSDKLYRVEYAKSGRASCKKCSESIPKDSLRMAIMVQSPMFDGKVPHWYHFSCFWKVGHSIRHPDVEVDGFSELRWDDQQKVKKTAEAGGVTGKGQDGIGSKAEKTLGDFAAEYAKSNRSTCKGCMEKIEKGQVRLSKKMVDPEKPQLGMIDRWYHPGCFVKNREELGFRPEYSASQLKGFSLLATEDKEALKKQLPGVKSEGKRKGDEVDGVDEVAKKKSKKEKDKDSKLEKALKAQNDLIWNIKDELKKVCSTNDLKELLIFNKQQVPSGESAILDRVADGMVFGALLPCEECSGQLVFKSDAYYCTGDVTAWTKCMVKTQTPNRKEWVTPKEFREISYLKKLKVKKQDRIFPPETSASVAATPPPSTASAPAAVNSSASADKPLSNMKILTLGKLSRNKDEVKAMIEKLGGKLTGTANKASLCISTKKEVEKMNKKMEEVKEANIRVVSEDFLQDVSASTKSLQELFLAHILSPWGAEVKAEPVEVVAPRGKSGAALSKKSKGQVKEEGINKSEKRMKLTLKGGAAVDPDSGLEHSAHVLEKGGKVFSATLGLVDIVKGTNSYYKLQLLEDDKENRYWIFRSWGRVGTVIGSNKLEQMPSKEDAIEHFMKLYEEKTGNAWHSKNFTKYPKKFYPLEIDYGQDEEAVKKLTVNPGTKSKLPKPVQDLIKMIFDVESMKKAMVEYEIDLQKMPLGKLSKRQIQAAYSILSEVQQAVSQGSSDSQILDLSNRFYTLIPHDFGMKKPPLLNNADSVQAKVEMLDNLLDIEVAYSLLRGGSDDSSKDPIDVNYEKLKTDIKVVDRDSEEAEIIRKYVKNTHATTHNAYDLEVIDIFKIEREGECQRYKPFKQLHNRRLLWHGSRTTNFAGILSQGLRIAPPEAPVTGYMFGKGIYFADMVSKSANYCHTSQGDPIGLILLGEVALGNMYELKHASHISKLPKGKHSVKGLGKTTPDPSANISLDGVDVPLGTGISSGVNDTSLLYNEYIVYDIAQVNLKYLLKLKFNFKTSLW

| SMILES | Ki |
| --- | --- |
| CC(=O)Nc1cccc(-c2cc(C(C)Cc3n[nH]c(=O)c4c3CCCC4)ccc2F)c1 (centres unmarked) [Example 296, N-(2′-fluoro-5′-(1-methyl-2-(4-oxo-3,4,5,6,7,8-hexahydrophthalazin-1-yl)ethyl)-1,1′-biphenyl-3-yl)acetamide] | 683 nM |
| O=C(NC1CC1)c1cccc(-c2cc(CCc3n[nH]c(=O)c4c3CCCC4)ccc2F)c1 [Example 270, N-cyclopropyl-2′-fluoro-5′-(2-(4-oxo-3,4,5,6,7,8-hexahydrophthalazin-1-yl)ethyl)-1,1′-biphenyl-3-carboxamide] | 487 nM |
| CS(=O)(=O)c1nccc(Cc2n[nH]c(=O)c3c2CCCC3)n1 [Example 69, 4-((2-(methylsulfonyl)pyrimidin-4-yl)methyl)-5,6,7,8-tetrahydrophthalazin-1(2H)-one] | 40 nM |
| O=C1CCCN1c1cc(-c2n[nH]c(=O)c3c2CCCC3)ccc1F [Example 491, 4-(4-fluoro-3-(2-oxopyrrolidin-1-yl)phenyl)-5,6,7,8-tetrahydrophthalazin-1(2H)-one] | 191 nM |
| COC(=O)c1ccc(Cc2n[nH]c(=O)c3c2CCCC3)s1 [Example 92, methyl 5-((4-oxo-3,4,5,6,7,8-hexahydrophthalazin-1-yl)methyl)thiophene-2-carboxylate] | 167 nM |
| Cc1ccc(NC(=O)c2cccc(Cc3n[nH]c(=O)c4c3CCCC4)c2)c(F)c1 [Example 338, N-(2-fluoro-4-methylphenyl)-3-((4-oxo-3,4,5,6,7,8-hexahydrophthalazin-1-yl)methyl)benzamide] | 136 nM |

Now those with a lower Ki, led by results:

| Ki | SMILES |
| --- | --- |
| 11 nM | O=C(CNC(=O)c1ccccc1)Nc1cccc(Cc2n[nH]c(=O)c3c2CCCC3)c1 [Example 160, N-(2-oxo-2-(3-((4-oxo-3,4,5,6,7,8-hexahydrophthalazin-1-yl)methyl)phenylamino)ethyl)benzamide] |
| 10 nM | O=C(NCC(=O)N1CCCCC1)c1cc(Cc2n[nH]c(=O)c3c2NCCC3)ccc1F [Example 487, 2-fluoro-5-((5-oxo-1,2,3,4,5,6-hexahydropyrido(3,2-d)pyridazin-8-yl)methyl)-N-(2-oxo-2-(piperidin-1-yl)ethyl)benzamide] |
| 2.6 nM | O=C(c1cccnc1)N1CCCN(C(=O)c2cc(Cc3n[nH]c(=O)c4c3NCCC4)ccc2F)CC1 [Example 683, 8-(4-fluoro-3-{[4-(pyridin-3-ylcarbonyl)-1,4-diazepan-1-yl]carbonyl}benzyl)-2,3,4,6-tetrahydropyrido[2,3-d]pyridazin-5(1H)-one] |
| 2.2 nM | O=C(c1cncnc1)N1CCCN(C(=O)c2cc(Cc3n[nH]c(=O)c4c3NCCC4)ccc2F)CC1 [Example 685, 8-(4-fluoro-3-{[4-(pyrimidin-5-ylcarbonyl)-1,4-diazepan-1-yl]carbonyl}benzyl)-2,3,4,6-tetrahydropyrido[2,3-d]pyridazin-5(1H)-one] |
| 1.6 nM | Cc1cncc(N2CCN(C(=O)c3cc(Cc4n[nH]c(=O)c5c4CCCC5)ccc3F)CC2)n1 [Example 499, 4-(4-fluoro-3-{[4-(6-methylpyrazin-2-yl)piperazin-1-yl]carbonyl}benzyl)-5,6,7,8-tetrahydrophthalazin-1(2H)-one] |
| 1.1 nM | O=C(c1ccccn1)N1CCN(C(=O)c2cc(Cc3n[nH]c(=O)c4c3NCCC4)ccc2F)CC1 [Example 665, 8-(4-fluoro-3-{[4-(pyridin-2-ylcarbonyl)piperazin-1-yl]carbonyl}benzyl)-2,3,4,6-tetrahydropyrido[2,3-d]pyridazin-5(1H)-one] |
| 1 nM | O=C(c1ccc2[nH]cnc2c1)N1CCN(C(=O)c2cc(Cc3n[nH]c(=O)c4c3NCCC4)ccc2F)CC1 [Example 663, 8-(3-{[4-(1H-benzimidazol-5-ylcarbonyl)piperazin-1-yl]carbonyl}-4-fluorobenzyl)-2,3,4,6-tetrahydropyrido[2,3-d]pyridazin-5(1H)-one] |
| 0.6 nM | O=C(c1cc[nH]n1)N1CCN(C(=O)c2cc(Cc3n[nH]c(=O)c4c3NCCC4)ccc2F)CC1 [Example 704, 8-(4-fluoro-3-{[4-(1H-pyrazol-3-ylcarbonyl)piperazin-1-yl]carbonyl}benzyl)-2,3,4,6-tetrahydropyrido[2,3-d]pyridazin-5(1H)-one] |
